This test concerns parasites (ring stage, in human red blood cell culture). In words: Parasite LDH growth assay (antiparasite potency, Parasite Assay). Particulars: 0.7% rings, 2% haematocrit, 72 hours at 37° C., LDH readout of parasite growth. In kind it is cell-based, Plasmodium falciparum. How it is done: Assessing Antiparasite Potency in a Parasite LDH Growth Assay (Parasite Assay)
The parasite stock was maintained at 4% haematocrit in RPMI-Hepes media buffered with sodium bicarbonate and supplemented with 5% heat inactivated human serum and 0.5% albumax.
On the day of assay set up, a blood smear of the parasite culture was Giemsa stained and counted. The parasitemia was adjusted to 0.7% rings and the haematocrit was diluted to 2% in RPMI-Hepes media buffered with sodium bicarbonate and supplemented with 5% heat inactivated human serum and 0.5% albumax. 30 ul of diluted parasites are then added into 10 ul of media+compound in pre-prepared Greiner TC assay plates. Parasite assay plates were placed in gassed humidified boxes in single layer and allowed to incubate at 37° C. for 72 hours. After 72 hours growth, assay plates are sealed with parafilm and frozen flat, in single file at −80° C. overnight. On the following day, assay plates are allowed to thaw at room temperature for 4 hours to which an LDH assay is performed to measure parasite growth.

Where [1] appears, read: Plasmodium falciparum, Erythrocyte, 72 h.

The structures appear in SMILES notation.

The EC50 is the concentration at which the effect is half-maximal. In turn, `CC[C@]1(C)CC(=O)N(C2CC(C)Oc3ccc(C(=O)N[C@@H]4c5ccccc5OC[C@@]4(C)O)cc32)C(=N)N1` (single isomer, unassigned) [Example 181B] showed an EC50 of 7.9 nM. On the same count and under the same terms, as for `CC[C@]1(C)CC(=O)N([C@@H]2CCOc3ccc(C(=O)NC4c5cc(F)ccc5OCC4(C)O)cc32)C(=N)N1` (single isomer, unassigned) [Example 190A], the figure is 261 nM; as for `CC[C@]1(C)CC(=O)N([C@@H]2CCOc3ccc(C(=O)NC4c5cc(F)ccc5OCC4(C)O)cc32)C(=N)N1` (single isomer, unassigned) [Example 190B], 2.6 nM. Still for that read-out and setting: the figure for `CC[C@]1(C)CC(=O)N([C@@H]2CCOc3ccc(C(=O)NC4c5cc(F)ccc5OCC4(C)O)cc32)C(=N)N1` (single isomer, unassigned) [Example 190C] is 4.9 nM. As to `CC[C@]1(C)CC(=O)N([C@@H]2CCOc3ccc(C(=O)NC4c5c(F)cccc5OCC4(C)O)cc32)C(=N)N1` (single isomer, unassigned) [Example 193A], the EC50 is 96.4 nM. `CC[C@]1(C)CC(=O)N([C@@H]2CCOc3ccc(C(=O)NC4c5c(F)cccc5OCC4(C)O)cc32)C(=N)N1` (single isomer, unassigned) [Example 193B] gave a half-maximal effective concentration (EC50) of 0.8 nM. The same measure, in the same setting: the figure for `CC[C@]1(C)CC(=O)N([C@@H]2CCOc3ccc(C(=O)NC4c5c(F)cccc5OCC4(C)O)cc32)C(=N)N1` (single isomer, unassigned) [Example 193C] is 19.5 nM; for `COCC1(C)Oc2ccc(C(=O)N[C@H]3CC(C)(C)Oc4ccccc43)cc2C1N1C(=N)NC(C)(C)CC1=O` (single isomer, unassigned) [Example 214A] it is 8.2 nM. Consider `COCC1(C)Oc2ccc(C(=O)N[C@H]3CC(C)(C)Oc4ccccc43)cc2C1N1C(=N)NC(C)(C)CC1=O` (single isomer, unassigned) [Example 214B], for which the concentration giving a half-maximal response (EC50) was 260 nM. The same measure, in the same setting: as for `CCC1(CC)CC(=O)N([C@@H]2CCOc3ccc(C(=O)NC4c5cc(F)ccc5OCC4(C)O)cc32)C(=N)N1` (single isomer, unassigned) [Example 226A], the figure is 2.6 nM; as for `CCC1(CC)CC(=O)N([C@@H]2CCOc3ccc(C(=O)NC4c5cc(F)ccc5OCC4(C)O)cc32)C(=N)N1` (single isomer, unassigned) [Example 226B], 69 nM; as for `CCC1(CC)CC(=O)N([C@@H]2CCOc3ccc(C(=O)NC4c5cc(F)ccc5OCC4(C)O)cc32)C(=N)N1` (single isomer, unassigned) [Example 226C], 273 nM. Still for that read-out and setting: the figure for `CCC1(CC)CC(=O)N([C@@H]2CCOc3ccc(C(=O)NC4c5cc(F)ccc5OCC4(C)O)cc32)C(=N)N1` (single isomer, unassigned) [Example 226D] is 1 nM; for `CC1(C)CC(=O)N([C@@H]2CCOc3ccc(C(=O)NC4c5ccccc5OCC4(O)C(F)(F)F)cc32)C(=N)N1` (single isomer, unassigned) [Example 234A] it is 22.5 nM. `CC1(C)CC(=O)N([C@@H]2CCOc3ccc(C(=O)NC4c5ccccc5OCC4(O)C(F)(F)F)cc32)C(=N)N1` (single isomer, unassigned) [Example 234B] gave an EC50 of 3.9 nM. Still for that read-out and setting: the figure for `CC1(C)CC(=O)N([C@@H]2CCOc3ccc(C(=O)NC4c5ccccc5OCC4(O)C(F)(F)F)cc32)C(=N)N1` (single isomer, unassigned) [Example 234C] is 43.2 nM; for `CCC1(CC)CC(=O)N([C@@H]2CCOc3ccc(C(=O)NC4c5ccccc5OC(C)(C)C4(C)O)cc32)C(=N)N1` (single isomer, unassigned) [Example 242A] it is 0.6 nM. The compound `CCC1(CC)CC(=O)N([C@@H]2CCOc3ccc(C(=O)NC4c5ccccc5OC(C)(C)C4(C)O)cc32)C(=N)N1` (single isomer, unassigned) [Example 242B] registered a 50% effective concentration (EC50) of 10.5 nM.

Take `CCC1(CC)CC(=O)N(C2c3cc(C(=O)N[C@@H]4c5ccccc5OC(C)(C)[C@H]4O)ccc3CC2OC)C(=N)N1` (single isomer, unassigned) [Example 251A]: a half-maximal response (EC50) required 0.4 nM. `CCC1(CC)CC(=O)N(C2c3cc(C(=O)N[C@@H]4c5ccccc5OC(C)(C)[C@H]4O)ccc3CC2OC)C(=N)N1` (single isomer, unassigned) [Example 251B] came in with an EC50 of 1.5 nM.

The compound `CCC1(CC)CC(=O)N(C2c3cc(C(=O)N[C@@H]4c5ccccc5OC(C)(C)[C@H]4O)ccc3CC2OC)C(=N)N1` (single isomer, unassigned) [Example 251C] showed an EC50 of 84.4 nM. Same read-out and setting: the figure for `CCC1(CC)CC(=O)N([C@@H]2CCOc3ccc(C(=O)NC4c5ccc(OC)cc5OCC4(C)O)cc32)C(=N)N1` (single isomer, unassigned) [Example 258A] is 85.9 nM; for `CCC1(CC)CC(=O)N([C@@H]2CCOc3ccc(C(=O)NC4c5ccc(OC)cc5OCC4(C)O)cc32)C(=N)N1` (single isomer, unassigned) [Example 258B] it is 2.4 nM; for `CCC1(CC)CC(=O)N([C@@H]2CCOc3ccc(C(=O)NC4c5ccc(OC)cc5OCC4(C)O)cc32)C(=N)N1` (single isomer, unassigned) [Example 258C] it is 226 nM. Same read-out and setting: the figure for `CCC1(CC)CC(=O)N([C@@H]2CCOc3ccc(C(=O)NC4c5ccc(OC)cc5OCC4(C)O)cc32)C(=N)N1` (single isomer, unassigned) [Example 258D] is 6.7 nM; for `CCC1(CC)CC(=O)N([C@@H]2CCOc3ccc(C(=O)NC4c5c(OC)cccc5OCC4(C)O)cc32)C(=N)N1` (single isomer, unassigned) [Example 259A] it is 5.5 nM; for `CCC1(CC)CC(=O)N([C@@H]2CCOc3ccc(C(=O)NC4c5c(OC)cccc5OCC4(C)O)cc32)C(=N)N1` (single isomer, unassigned) [Example 259B] it is 24.2 nM. The same measure, in the same setting: as for `CCC1(CC)CC(=O)N([C@@H]2CCOc3ccc(C(=O)NC4c5c(OC)cccc5OCC4(C)O)cc32)C(=N)N1` (single isomer, unassigned) [Example 259C], the figure is 3.6 nM. In the case of `CCC1(CC)CC(=O)N([C@@H]2CCOc3ccc(C(=O)NC4c5c(OC)cccc5OCC4(C)O)cc32)C(=N)N1` (single isomer, unassigned) [Example 259D], the concentration giving a half-maximal response (EC50) stood at 10.6 nM. `CCC1(CC)CC(=O)N([C@@H]2CCOc3ccc(C(=O)NC4c5ccccc5CC4(O)C(F)(F)F)cc32)C(=N)N1` (single isomer, unassigned) [Example 272A] came in with a 50% effective concentration (EC50) of 62.5 nM. The compound `CCC1(CC)CC(=O)N([C@@H]2CCOc3ccc(C(=O)NC4c5ccccc5CC4(O)C(F)(F)F)cc32)C(=N)N1` (single isomer, unassigned) [Example 272B] came in with a concentration for a half-maximal effect (EC50) of 14.3 nM. Against the preceding compound, the EC50 is about 4.4-fold lower.

For the compound `CCC1(CC)CC(=O)N([C@@H]2CCOc3ccc(C(=O)NC4c5ccccc5CC4(O)C(F)(F)F)cc32)C(=N)N1` (single isomer, unassigned) [Example 272C], the response was half-maximal at 0.9 nM (EC50). Same read-out and setting: as for `CCC1(CC)CC(=O)N([C@@H]2CCOc3ccc(C(=O)NC4c5ccccc5CC4(O)C(F)(F)F)cc32)C(=N)N1` (single isomer, unassigned) [Example 272D], the figure is 2.3 nM; as for `COCC1(C)CC(N2C(=N)NC(C)(C)CC2=O)c2cc(C(=O)N[C@@H]3c4ccccc4OC(C)(C)[C@H]3O)ccc2O1` (single isomer, unassigned) [Example 282A], 7.8 nM; as for `COCC1(C)CC(N2C(=N)NC(C)(C)CC2=O)c2cc(C(=O)N[C@@H]3c4ccccc4OC(C)(C)[C@H]3O)ccc2O1` (single isomer, unassigned) [Example 282B], 40.5 nM.

Regarding `CCC1(CC)CC(=O)N([C@H]2c3cc(C(=O)NC4c5ccccc5C(F)(F)[C@@H]4O)ccc3O[C@@]2(C)COC)C(=N)N1` (stereo in doubt) [Example 291, (2R,3S)-3-(4,4-diethyl-2-imino-6-oxo-hexahydropyrimidin-1-yl)-N-[(1S,2R)-3,3-difluoro-2-hydroxy-indan-1-yl]-2-(methoxymethyl)-2-methyl-3H-benzofuran-5-carboxamide], it took 240 nM to reach a half-maximal effect under setting [1] (EC50). For the compound `CCC1(CC)CC(=O)N(C2CCOc3ccc(C(=O)N[C@H]4CC(C)(C)Oc5ccccc54)cc32)C(=N)N1` (stereo partly drawn) [Example 1A, 4-(4,4-diethyl-2-imino-6-oxotetrahydropyrimidin-1(2H)-yl)-N—((S)-2,2-dimethylchroman-4-yl)chroman-6-carboxamide], under setting [1], the response was half-maximal at 0.5 nM (EC50). Under setting [1], `CCC1(CC)CC(=O)N(C2CCOc3ccc(C(=O)N[C@@H]4c5ccccc5OC(C)(C)[C@H]4O)cc32)C(=N)N1` (stereo partly drawn) [Example 2A, 4-(4,4-diethyl-2-imino-6-oxotetrahydropyrimidin-1(2H)-yl)-N-((3S,4R)-3-hydroxy-2,2-dimethylchroman-4-yl)chroman-6-carboxamide] yielded an EC50 of 0.5 nM. `CCC1(CC)CC(=O)N([C@@H]2CCOc3ccc(C(=O)N[C@H]4CCOc5ccccc54)cc32)C(=N)N1` [Example 3A, (R)-N-((S)-chroman-4-yl)-4-(4,4-diethyl-2-imino-6-oxotetrahydropyrimidin-1(2H)-yl)chromane-6-carboxamide] had a 50% effective concentration (EC50) under setting [1] of 2.2 nM. This EC50 lies about 4.4-fold higher than the previous one.

Compound `CCC1(CC)CC(=O)N([C@@H]2CCOc3ccc(C(=O)N[C@@H](C)c4ccccc4)cc32)C(=N)N1` [Example 4A, (R)-4-(4,4-diethyl-2-imino-6-oxotetrahydropyrimidin-1(2H)-yl)-N-((S)-1-phenylethyl)chromane-6-carboxamide] yielded a 50% effective concentration (EC50) under setting [1] of 87 nM.

The record behind these values is patent publication US12350270B2, “Antimalarial agents” (Merck Sharp & Dohme LLC, priority 2019, dated 2025).
